Source: publication PMC9310519, “Small-molecule inhibitor of intestinal anion exchanger SLC26A3 for treatment of hyperoxaluria and nephrolithiasis” (JCI Insight, 2022)
pIC50: −log10 of the molar value.

Key:
SLC26A3 (murine) = SLC26A3 (murine) (Mus musculus, UniProt Q9WVC8); assay: YFP oxalate/chloride exchange assay in FRT cells stably expressing murine SLC26A3; Transwell oxalate transport; assay type: cell-based
SLC26A3 (human) = SLC26A3 (human) (Homo sapiens, UniProt P40879); assay: YFP halide-sensor anion transport assay in HEK293 cells expressing human SLC26A3; assay type: cell-based
5-HT2B Human Serotonin = biological target: T1, 5-HT2B Human Serotonin (Homo sapiens, UniProt P41595); assay: biochemical; design: Eurofins SafetyScreen44 radioligand binding displacement, percent inhibition, duplicate; settings: radioligand binding
T1 construct: gene HTR2B
Experimental: (§1) Possible off-target effects of DRAinh-A270 were investigated by panel screening (Eurofins SafetyScreen44). […] Testing for CYP450 and hERG inhibition also supported DRAinh-A270 safety (Supplemental Tables 2 and 3, respectively). Finally, metabolic stability of DRAinh-A270 was measured in mouse, rat, and human microsomes.

GR Human Glucocorticoid = biological target: T2, GR Human Glucocorticoid (Homo sapiens, UniProt P04150); assay: biochemical; design: Eurofins SafetyScreen44 radioligand binding displacement, percent inhibition, duplicate; settings: radioligand binding
T2 construct: gene NR3C1
T2 sequence (P04150 whole entry): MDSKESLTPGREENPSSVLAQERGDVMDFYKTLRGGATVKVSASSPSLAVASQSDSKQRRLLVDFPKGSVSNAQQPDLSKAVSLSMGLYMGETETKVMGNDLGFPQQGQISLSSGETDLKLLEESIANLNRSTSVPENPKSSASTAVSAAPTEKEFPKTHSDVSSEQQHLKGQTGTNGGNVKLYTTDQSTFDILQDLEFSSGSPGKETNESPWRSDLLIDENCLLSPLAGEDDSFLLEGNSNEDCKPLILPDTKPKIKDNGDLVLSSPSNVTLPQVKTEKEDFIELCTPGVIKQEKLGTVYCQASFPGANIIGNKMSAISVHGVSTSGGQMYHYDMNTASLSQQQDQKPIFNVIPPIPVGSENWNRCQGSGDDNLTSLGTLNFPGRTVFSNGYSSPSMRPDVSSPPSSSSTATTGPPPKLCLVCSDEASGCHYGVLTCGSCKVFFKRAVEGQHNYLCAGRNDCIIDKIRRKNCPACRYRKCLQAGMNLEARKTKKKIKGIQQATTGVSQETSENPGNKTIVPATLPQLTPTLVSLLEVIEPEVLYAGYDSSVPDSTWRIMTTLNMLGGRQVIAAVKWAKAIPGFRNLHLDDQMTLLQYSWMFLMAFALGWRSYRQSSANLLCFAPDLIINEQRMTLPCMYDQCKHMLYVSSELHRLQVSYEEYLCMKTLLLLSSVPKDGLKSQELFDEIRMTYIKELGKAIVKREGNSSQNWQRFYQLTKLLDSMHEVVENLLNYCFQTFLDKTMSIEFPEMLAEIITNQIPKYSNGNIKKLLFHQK
Experimental: as §1

[1] = biological target: T3, M1 Human Acetylcholine (Muscarinic) (Homo sapiens, UniProt P11229); assay: biochemical; design: Eurofins SafetyScreen44 radioligand binding displacement, percent inhibition, duplicate; settings: radioligand binding
T3 construct: gene CHRM1
Experimental: as §1

[2] = biological target: T4, M3 Human Acetylcholine (Muscarinic) (Homo sapiens, UniProt P20309); assay: biochemical; design: Eurofins SafetyScreen44 radioligand binding displacement, percent inhibition, duplicate; settings: radioligand binding
T4 construct: gene CHRM3
Experimental: as §1

D1 Human Dopamine = biological target: T5, D1 Human Dopamine (Homo sapiens, UniProt P21728); assay: biochemical; design: Eurofins SafetyScreen44 radioligand binding displacement, percent inhibition, duplicate; settings: radioligand binding
T5 construct: gene DRD1
Experimental: as §1

[3] = biological target: T6, alpha2A Human Adrenoceptor (Homo sapiens, UniProt P08913); assay: biochemical; design: Eurofins SafetyScreen44 radioligand binding displacement, percent inhibition, duplicate; settings: radioligand binding
T6 construct: gene ADRA2A
Experimental: as §1

kappa (KOP) Human Opioid = biological target: T7, kappa (KOP) Human Opioid (Homo sapiens, UniProt P41145); assay: biochemical; design: Eurofins SafetyScreen44 radioligand binding displacement, percent inhibition, duplicate; settings: radioligand binding
T7 construct: gene OPRK1
T7 sequence (P41145 whole entry): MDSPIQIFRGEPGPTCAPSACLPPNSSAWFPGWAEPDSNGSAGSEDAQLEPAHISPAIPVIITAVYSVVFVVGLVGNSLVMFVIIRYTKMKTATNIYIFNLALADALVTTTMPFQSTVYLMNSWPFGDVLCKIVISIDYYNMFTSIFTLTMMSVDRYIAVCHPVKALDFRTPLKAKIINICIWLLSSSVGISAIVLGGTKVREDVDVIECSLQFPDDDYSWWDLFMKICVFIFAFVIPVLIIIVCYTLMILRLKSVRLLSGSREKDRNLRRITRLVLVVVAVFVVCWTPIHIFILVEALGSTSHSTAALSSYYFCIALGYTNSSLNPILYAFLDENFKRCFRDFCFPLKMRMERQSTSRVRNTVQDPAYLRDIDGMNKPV
Experimental: as §1

A2A Human Adenosine = biological target: T8, A2A Human Adenosine (Homo sapiens, UniProt P29274); assay: biochemical; design: Eurofins SafetyScreen44 radioligand binding displacement, percent inhibition, duplicate; settings: radioligand binding
T8 construct: gene ADORA2A
Experimental: as §1

hERG = biological target: T9, hERG (Homo sapiens, UniProt Q12809); assay: in vitro; design: Eurofins SafetyScreen44 radioligand binding displacement, percent inhibition, duplicate; settings: radioligand binding
T9 construct: gene KCNH2
T9 sequence (Q12809 whole entry): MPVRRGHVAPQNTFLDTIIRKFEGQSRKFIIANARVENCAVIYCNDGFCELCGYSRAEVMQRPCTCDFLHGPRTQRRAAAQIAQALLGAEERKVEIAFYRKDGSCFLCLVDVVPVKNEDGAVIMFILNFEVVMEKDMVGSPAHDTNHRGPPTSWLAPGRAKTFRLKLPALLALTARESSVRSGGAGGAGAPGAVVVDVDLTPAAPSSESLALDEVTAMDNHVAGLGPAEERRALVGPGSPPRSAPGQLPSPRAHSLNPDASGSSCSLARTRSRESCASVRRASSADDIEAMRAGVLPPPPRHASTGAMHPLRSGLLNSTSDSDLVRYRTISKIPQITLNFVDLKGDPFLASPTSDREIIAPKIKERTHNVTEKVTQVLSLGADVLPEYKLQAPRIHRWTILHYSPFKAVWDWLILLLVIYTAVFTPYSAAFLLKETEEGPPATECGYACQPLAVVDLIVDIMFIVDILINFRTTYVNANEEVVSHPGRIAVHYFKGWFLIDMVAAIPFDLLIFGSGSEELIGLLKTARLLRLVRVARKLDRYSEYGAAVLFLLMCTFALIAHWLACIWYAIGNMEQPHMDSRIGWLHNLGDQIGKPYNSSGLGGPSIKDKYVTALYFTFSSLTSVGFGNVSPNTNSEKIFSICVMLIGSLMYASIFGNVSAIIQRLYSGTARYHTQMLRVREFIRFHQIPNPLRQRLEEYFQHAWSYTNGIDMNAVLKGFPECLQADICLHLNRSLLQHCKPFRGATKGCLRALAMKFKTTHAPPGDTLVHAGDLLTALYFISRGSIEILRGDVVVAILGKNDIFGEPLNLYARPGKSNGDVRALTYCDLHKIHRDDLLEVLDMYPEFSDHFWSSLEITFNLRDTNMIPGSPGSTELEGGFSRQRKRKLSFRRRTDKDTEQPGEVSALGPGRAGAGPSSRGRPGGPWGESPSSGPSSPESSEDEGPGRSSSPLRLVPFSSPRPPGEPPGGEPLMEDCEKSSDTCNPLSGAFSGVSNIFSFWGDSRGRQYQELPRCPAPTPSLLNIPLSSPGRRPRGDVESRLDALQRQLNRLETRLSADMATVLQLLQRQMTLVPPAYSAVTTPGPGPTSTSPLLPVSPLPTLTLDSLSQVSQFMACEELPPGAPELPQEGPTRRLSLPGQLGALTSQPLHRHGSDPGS
Experimental: as §1

CB2 Human Cannabinoid = biological target: T10, CB2 Human Cannabinoid (Homo sapiens, UniProt P34972); assay: biochemical; design: Eurofins SafetyScreen44 radioligand binding displacement, percent inhibition, duplicate; settings: radioligand binding
T10 construct: gene CNR2
T10 sequence (P34972 whole entry): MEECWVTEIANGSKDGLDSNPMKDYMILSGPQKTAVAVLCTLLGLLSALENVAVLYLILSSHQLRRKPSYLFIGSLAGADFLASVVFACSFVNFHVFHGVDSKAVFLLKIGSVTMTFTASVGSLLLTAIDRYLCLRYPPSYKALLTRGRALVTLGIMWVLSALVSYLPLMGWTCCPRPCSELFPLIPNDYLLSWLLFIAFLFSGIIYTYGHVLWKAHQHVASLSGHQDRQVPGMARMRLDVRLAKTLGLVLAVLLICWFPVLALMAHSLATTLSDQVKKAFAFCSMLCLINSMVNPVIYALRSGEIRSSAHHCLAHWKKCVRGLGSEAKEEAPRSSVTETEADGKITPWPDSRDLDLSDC
Experimental: as §1

beta1 Human Adrenoceptor = biological target: T11, beta1 Human Adrenoceptor (Homo sapiens, UniProt P08588); assay: biochemical; design: Eurofins SafetyScreen44 radioligand binding displacement, percent inhibition, duplicate; settings: radioligand binding
T11 construct: gene ADRB1
Experimental: as §1

H1 Human Histamine = biological target: T12, H1 Human Histamine (Homo sapiens, UniProt P35367); assay: biochemical; design: Eurofins SafetyScreen44 radioligand binding displacement, percent inhibition, duplicate; settings: radioligand binding
T12 construct: gene HRH1
Experimental: as §1

[4] = biological target: T13, M2 Human Acetylcholine (Muscarinic) (Homo sapiens, UniProt P08172); assay: biochemical; design: Eurofins SafetyScreen44 radioligand binding displacement, percent inhibition, duplicate; settings: radioligand binding
T13 construct: gene CHRM2
Experimental: as §1

5-HT1A Human Serotonin = biological target: T14, 5-HT1A Human Serotonin (Homo sapiens, UniProt P08908); assay: biochemical; design: Eurofins SafetyScreen44 radioligand binding displacement, percent inhibition, duplicate; settings: radioligand binding
T14 construct: gene HTR1A
T14 sequence (P08908 whole entry): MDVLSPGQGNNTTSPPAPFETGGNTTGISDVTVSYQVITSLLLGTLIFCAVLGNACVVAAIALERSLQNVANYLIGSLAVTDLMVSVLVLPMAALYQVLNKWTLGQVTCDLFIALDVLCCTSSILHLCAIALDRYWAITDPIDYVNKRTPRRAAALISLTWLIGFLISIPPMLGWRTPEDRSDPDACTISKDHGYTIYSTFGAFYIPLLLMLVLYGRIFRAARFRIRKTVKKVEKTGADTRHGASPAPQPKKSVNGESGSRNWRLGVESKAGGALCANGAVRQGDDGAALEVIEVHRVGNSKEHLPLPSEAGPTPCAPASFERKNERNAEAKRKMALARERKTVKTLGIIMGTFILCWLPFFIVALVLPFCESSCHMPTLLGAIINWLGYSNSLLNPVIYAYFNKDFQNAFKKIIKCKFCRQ
Experimental: as §1

beta2 Human Adrenoceptor = biological target: T15, beta2 Human Adrenoceptor (Homo sapiens, UniProt P07550); assay: biochemical; design: Eurofins SafetyScreen44 radioligand binding displacement, percent inhibition, duplicate; settings: radioligand binding
T15 construct: gene ADRB2
T15 sequence (P07550 whole entry): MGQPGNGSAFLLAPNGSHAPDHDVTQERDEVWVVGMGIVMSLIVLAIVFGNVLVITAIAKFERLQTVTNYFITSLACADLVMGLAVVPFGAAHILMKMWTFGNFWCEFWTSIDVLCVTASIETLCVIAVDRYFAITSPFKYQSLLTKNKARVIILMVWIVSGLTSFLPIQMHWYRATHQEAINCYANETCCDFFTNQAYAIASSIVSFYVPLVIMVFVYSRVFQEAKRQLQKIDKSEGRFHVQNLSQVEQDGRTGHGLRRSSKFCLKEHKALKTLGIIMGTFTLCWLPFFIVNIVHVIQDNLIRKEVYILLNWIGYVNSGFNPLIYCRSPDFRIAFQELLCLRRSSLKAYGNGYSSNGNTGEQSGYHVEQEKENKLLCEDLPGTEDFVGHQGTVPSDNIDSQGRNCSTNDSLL
Experimental: as §1

[5] = biological target: T16, NET Human Norepinephrine Transporter (Homo sapiens, UniProt P23975); assay: biochemical; design: Eurofins SafetyScreen44 radioligand binding displacement, percent inhibition, duplicate; settings: radioligand binding
T16 construct: gene SLC6A2
T16 sequence (P23975 whole entry): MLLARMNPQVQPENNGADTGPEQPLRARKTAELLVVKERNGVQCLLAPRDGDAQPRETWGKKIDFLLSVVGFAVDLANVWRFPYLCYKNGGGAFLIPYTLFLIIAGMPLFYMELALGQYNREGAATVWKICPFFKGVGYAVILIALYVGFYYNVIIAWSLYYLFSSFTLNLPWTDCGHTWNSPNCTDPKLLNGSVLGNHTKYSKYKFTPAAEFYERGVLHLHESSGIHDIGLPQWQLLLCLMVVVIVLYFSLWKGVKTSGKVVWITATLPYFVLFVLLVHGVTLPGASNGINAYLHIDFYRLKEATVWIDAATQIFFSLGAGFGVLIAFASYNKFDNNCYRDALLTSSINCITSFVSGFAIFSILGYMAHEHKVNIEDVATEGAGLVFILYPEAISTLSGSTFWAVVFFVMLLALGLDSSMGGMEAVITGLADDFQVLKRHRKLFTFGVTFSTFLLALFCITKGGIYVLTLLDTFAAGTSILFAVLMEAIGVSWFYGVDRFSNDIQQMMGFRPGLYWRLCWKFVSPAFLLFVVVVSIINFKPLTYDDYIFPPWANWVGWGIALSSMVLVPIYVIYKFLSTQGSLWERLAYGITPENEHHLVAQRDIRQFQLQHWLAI
Experimental: as §1

delta (DOP) Human Opioid = biological target: T17, delta (DOP) Human Opioid (Homo sapiens, UniProt P41143); assay: biochemical; design: Eurofins SafetyScreen44 radioligand binding displacement, percent inhibition, duplicate; settings: radioligand binding
T17 construct: gene OPRD1
Experimental: as §1

mu (MOP) Human Opioid = biological target: T18, mu (MOP) Human Opioid (Homo sapiens, UniProt P35372); assay: biochemical; design: Eurofins SafetyScreen44 radioligand binding displacement, percent inhibition, duplicate; settings: radioligand binding
T18 construct: gene OPRM1
T18 sequence (P35372 whole entry): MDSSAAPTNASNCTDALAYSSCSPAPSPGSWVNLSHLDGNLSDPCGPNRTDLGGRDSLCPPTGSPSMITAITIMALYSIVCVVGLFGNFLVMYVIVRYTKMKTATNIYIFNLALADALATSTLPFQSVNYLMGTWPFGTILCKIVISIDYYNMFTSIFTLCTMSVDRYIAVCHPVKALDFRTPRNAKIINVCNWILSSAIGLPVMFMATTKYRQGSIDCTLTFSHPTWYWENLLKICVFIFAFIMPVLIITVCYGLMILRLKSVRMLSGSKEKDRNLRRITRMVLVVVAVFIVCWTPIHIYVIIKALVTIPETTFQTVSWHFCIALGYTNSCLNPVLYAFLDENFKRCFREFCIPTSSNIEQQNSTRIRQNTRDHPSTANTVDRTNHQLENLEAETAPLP
Experimental: as §1

V1A Human Vasopressin = biological target: T19, V1A Human Vasopressin (Homo sapiens, UniProt P37288); assay: biochemical; design: Eurofins SafetyScreen44 radioligand binding displacement, percent inhibition, duplicate; settings: radioligand binding
T19 construct: gene AVPR1A
Experimental: as §1

CB1 Human Cannabinoid = biological target: T20, CB1 Human Cannabinoid (Homo sapiens, UniProt P21554); assay: biochemical; design: Eurofins SafetyScreen44 radioligand binding displacement, percent inhibition, duplicate; settings: radioligand binding
T20 construct: gene CNR1
Experimental: as §1

[6] = biological target: T21, CCK1 (CCKA) Human Cholecystokinin (Homo sapiens, UniProt P32238); assay: biochemical; design: Eurofins SafetyScreen44 radioligand binding displacement, percent inhibition, duplicate; settings: radioligand binding
T21 construct: gene CCKAR
T21 sequence (P32238 whole entry): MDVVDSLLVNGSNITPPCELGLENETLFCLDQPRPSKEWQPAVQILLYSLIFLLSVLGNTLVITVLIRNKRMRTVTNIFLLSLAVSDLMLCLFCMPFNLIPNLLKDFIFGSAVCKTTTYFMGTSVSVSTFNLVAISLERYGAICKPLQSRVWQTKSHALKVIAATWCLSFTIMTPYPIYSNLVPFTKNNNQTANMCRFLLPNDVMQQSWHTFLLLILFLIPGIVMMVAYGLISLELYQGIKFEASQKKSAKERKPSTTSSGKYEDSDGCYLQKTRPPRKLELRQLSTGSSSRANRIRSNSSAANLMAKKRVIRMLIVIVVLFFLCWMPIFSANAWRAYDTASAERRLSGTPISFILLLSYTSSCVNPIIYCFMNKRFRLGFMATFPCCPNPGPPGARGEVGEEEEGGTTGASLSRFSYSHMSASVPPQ
Experimental: as §1

5-HT2A Human Serotonin = biological target: T22, 5-HT2A Human Serotonin (Homo sapiens, UniProt P28223); assay: biochemical; design: Eurofins SafetyScreen44 radioligand binding displacement, percent inhibition, duplicate; settings: radioligand binding
T22 construct: gene HTR2A
Experimental: as §1

ETA Human Endothelin = biological target: T23, ETA Human Endothelin (Homo sapiens, UniProt P25101); assay: biochemical; design: Eurofins SafetyScreen44 radioligand binding displacement, percent inhibition, duplicate; settings: radioligand binding
T23 construct: gene EDNRA
Experimental: as §1

AR Human Androgen = AR Human Androgen (Homo sapiens, UniProt P10275); assay: biochemical; design: Eurofins SafetyScreen44 radioligand binding displacement, percent inhibition, duplicate; settings: radioligand binding
Experimental: as §1

5-HT1B Human Serotonin = biological target: T24, 5-HT1B Human Serotonin (Homo sapiens, UniProt P28222); assay: biochemical; design: Eurofins SafetyScreen44 radioligand binding displacement, percent inhibition, duplicate; settings: radioligand binding
T24 construct: gene HTR1B
Experimental: as §1

[7] = biological target: T25, DAT Human Dopamine Transporter (Homo sapiens, UniProt Q01959); assay: biochemical; design: Eurofins SafetyScreen44 radioligand binding displacement, percent inhibition, duplicate; settings: radioligand binding
T25 construct: gene SLC6A3
Experimental: as §1

[8] = biological target: T26, alpha1A Human Adrenoceptor (Homo sapiens, UniProt P35348); assay: biochemical; design: Eurofins SafetyScreen44 radioligand binding displacement, percent inhibition, duplicate; settings: radioligand binding
T26 construct: gene ADRA1A
Experimental: as §1

5-HT3 Human Serotonin = biological target: T27, 5-HT3 Human Serotonin (Homo sapiens, UniProt P46098); assay: biochemical; design: Eurofins SafetyScreen44 radioligand binding displacement, percent inhibition, duplicate; settings: radioligand binding
T27 construct: gene HTR3A
Experimental: as §1

D2S Human Dopamine = biological target: T28, D2S Human Dopamine (Homo sapiens, UniProt P14416); assay: biochemical; design: Eurofins SafetyScreen44 radioligand binding displacement, percent inhibition, duplicate; settings: radioligand binding
T28 construct: gene DRD2; D2S short isoform
Experimental: as §1

[9] = biological target: T29, nAChR (alpha4/beta2) Human Ion Channel (Homo sapiens, UniProt P17787+P43681); assay: biochemical; design: Eurofins SafetyScreen44 radioligand binding displacement, percent inhibition, duplicate; settings: radioligand binding
T29 construct: gene CHRNB2
Experimental: as §1

H2 Human Histamine = biological target: T30, H2 Human Histamine (Homo sapiens, UniProt P25021); assay: biochemical; design: Eurofins SafetyScreen44 radioligand binding displacement, percent inhibition, duplicate; settings: radioligand binding
T30 construct: gene HRH2
Experimental: as §1

[10] = biological target: T31, Monoamine Oxidase A (MAO-A) (Homo sapiens, UniProt P21397); assay: biochemical; design: Eurofins SafetyScreen44 enzymatic assay, percent inhibition, duplicate; settings: enzymatic assay
T31 construct: gene MAOA
Experimental: as §1

Acetylcholinesterase = biological target: T32, Acetylcholinesterase (Homo sapiens, UniProt P22303); assay: biochemical; design: Eurofins SafetyScreen44 enzymatic assay, percent inhibition, duplicate; settings: enzymatic assay
T32 construct: gene ACHE
Experimental: as §1

[11] = biological target: PDE3A Human Phosphodiesterase (Homo sapiens, UniProt Q14432); assay: biochemical; design: Eurofins SafetyScreen44 enzymatic assay, percent inhibition, duplicate; settings: enzymatic assay
Experimental: as §1

[12] = biological target: T33, COX1 Human Cyclooxygenase (Homo sapiens, UniProt P23219); assay: biochemical; design: Eurofins SafetyScreen44 enzymatic assay, percent inhibition, duplicate; settings: enzymatic assay
T33 construct: gene PTGS1
Experimental: as §1

[13] = biological target: T34, COX2 Human Cyclooxygenase (Homo sapiens, UniProt P35354); assay: biochemical; design: Eurofins SafetyScreen44 enzymatic assay, percent inhibition, duplicate; settings: enzymatic assay
T34 construct: gene PTGS2
Experimental: as §1

[14] = biological target: T35, PDE4D2 Human Phosphodiesterase (Homo sapiens, UniProt Q08499); assay: biochemical; design: Eurofins SafetyScreen44 enzymatic assay, percent inhibition, duplicate; settings: enzymatic assay
T35 construct: gene PDE4D; PDE4D2 isoform
Experimental: as §1

Cc1c(CC(=O)O)c(=O)oc2c(C)c(OCc3cccc(I)c3)ccc12 [4az (in ref. 19), DRAinh-A270]
pIC50 (SLC26A3 (murine)): ~7.22 | pIC50 (SLC26A3 (human)): 7.70 | inhibition at 10 µM (5-HT2B Human Serotonin): 64% | inhibition at 10 µM (GR Human Glucocorticoid): -7% | inhibition at 10 µM [1]: 9% | inhibition at 10 µM [2]: 8% | inhibition at 10 µM (D1 Human Dopamine): 13% | inhibition at 10 µM [3]: 47% | inhibition at 10 µM (kappa (KOP) Human Opioid): 7% | inhibition at 10 µM (A2A Human Adenosine): 46% | inhibition at 10 µM (hERG): 19% | inhibition at 10 µM (CB2 Human Cannabinoid): -1% | inhibition at 10 µM (beta1 Human Adrenoceptor): 14% | inhibition at 10 µM (H1 Human Histamine): 27% | inhibition at 10 µM [4]: -3% | inhibition at 10 µM (5-HT1A Human Serotonin): 0% | inhibition at 10 µM (beta2 Human Adrenoceptor): 3% | inhibition at 10 µM [5]: 29% | inhibition at 10 µM (delta (DOP) Human Opioid): -3% | inhibition at 10 µM (mu (MOP) Human Opioid): -5% | inhibition at 10 µM (V1A Human Vasopressin): -1% | inhibition at 10 µM (CB1 Human Cannabinoid): -3% | inhibition at 10 µM [6]: -5% | inhibition at 10 µM (5-HT2A Human Serotonin): 17% | inhibition at 10 µM (ETA Human Endothelin): 13% | inhibition at 10 µM (AR Human Androgen): 13% | inhibition at 10 µM (5-HT1B Human Serotonin): -1% | inhibition at 10 µM [7]: -2% | inhibition at 10 µM [8]: 5% | inhibition at 10 µM (5-HT3 Human Serotonin): -6% | inhibition at 10 µM (D2S Human Dopamine): 2% | inhibition at 10 µM [9]: -3% | inhibition at 10 µM (H2 Human Histamine): -2% | inhibition at 10 µM [10]: 73% | inhibition at 10 µM (Acetylcholinesterase): 10% | inhibition at 10 µM [11]: 4% | inhibition at 10 µM [12]: -1% | inhibition at 10 µM [13]: 15% | inhibition at 10 µM [14]: -2%
